In patent publication US9708628B2, “Cationic lipid having improved intracellular kinetics” (NOF CORPORATION, priority 2011, dated 2017):

Key:
[1] = Particle size and surface potential of siRNA MENDs prepared by t-BuOH injecting method; assay type: physicochemical; conditions: siRNA MEND; for PDI / size (nm) / zeta (mV): cationic lipid/cholesterol=70/30, DMG-PEG2000 3%
Description: (§1) A lipid solution in t-BuOH with a composition of cationic lipid/cholesterol=70/30, DMG-PEG2000 3% and a total lipid amount of 3000 nmol/400 μL (7.5 mM) was prepared in a 1.7 mL tube. In a separate 1.7 mL tube, an siRNA solution was prepared by mixing an siRNA aqueous solution containing siRNA (160 μg) and 20 mM malate buffer (pH 4.00, 30 mM NaCl) to total 50 μL. With vigorous stirring of the lipid solution, the siRNA solution was gradually added dropwise, and the mixed solution was taken in a 1 mL syringe. Then, 20 mM malate buffer (pH 4.00, 30 mM NaCl, 2 mL) was added into a 5 mL tube, and the mixed solution was gradually injected with vigorous stirring. Thereafter, the mixture was further diluted with PBS (7 mL) and centrifuged at 1000 g, 30° C. for 10 min in Amicon Ultra-15-100K to a volume of less than 1.5 mL. PBS (15 mL) was added, and the solution was centrifuged again to about 500-1000 μL. Finally, the MEND solution was adjusted by diluting with PBS to the object lipid concentration.
The particle size and surface potential of various MENDs were measured according to the method described in [Experimental Example 2] and the results are shown in Table 6.

[2] = tested on: Factor VII (FVII); experiment: Knockdown effect of siRNA-encapsulated MEND prepared by t-BuOH injecting method; assay type: in vivo, ICR mice; conditions: varying doses of siRNA, tail vein
Description: A MEND solution prepared by the method shown in [Experimental Example 28] was administered to 4-week-old male ICR mice at 3 mg siRNA/kg from the tail vein, and blood was collected 24 hr later. This blood sample was centrifuged at 1000 g, 10 min, 4° C., and the supernatant was recovered to obtain plasma. The amount of Factor VII (FVII) in the plasma was quantified by BIOPHEN FVII CHROMOGENIC ASSAY (HYPHEN BioMed).
as §1
MENDs prepared by the method shown in Experimental Example 32 were administered by a method similar to the method shown in Experimental Example 30 with varying doses of siRNA, and the knockdown effect was evaluated. The results are shown in FIG. 35, FIG. 36, and FIG. 37.

[3] = Particle size and surface potential of pDNA-encapsulating MENDs, dynamic light scattering (Zetasizer Nano); assay type: physicochemical; conditions: pDNA MEND, cationic lipid:SOPE:Chol = 3:4:3
Description: A solution of pDNA encoding luciferase gene and protamine (CALBIOCHEM) solution were diluted with 10 mM HEPES buffer to 0.3 mg/mL and […], respectively. While stirring 0.3 mg/mL pDNA (125 μL), 0.24 mg/mL protamine (125 μL) was added dropwise in small portions to prepared an electrostatic complex of protamine and pDNA (N/P ratio=1.2) as a core of the vector. In the method described in the following (2), 10 mM HEPES buffer (pH 5.3) was used and, in the method described in (3), 10 mM HEPES buffer (pH 7.4) was used.
A lipid solution in ethanol was prepared by mixing 5 mM cationic lipid, 5 mM phospholipid and 5 mM cholesterol (Chol) at desired ratios to achieve 165 nmol total lipid in an Eppendorf tube, further adding various PEG lipids (1 mM solution in ethanol) in an amount corresponding to 3 mol % of the total lipid, and adding ethanol to achieve a total volume of 100 μL. While stirring the lipid solution in a vortex mixer, 100 μL of the nucleic acid electrostatic complex (10 mM HEPES; pH 5.3) prepared in [Experimental Example 1] (1) was quickly added, and thereafter 10 mM HEPES buffer (1.8 mL, adjusted to pH 5.3) was added to dilute the mixture to an ethanol concentration of 5%. The mixture was concentrated to about 50 μL by ultrafiltration using Amicon Ultra 4 (Millipore) under centrifugation conditions (room temperature, 2267 rpm, 20 min). Thereafter, it was diluted to 4 mL with 100 mM HEPES buffer (adjusted to pH 7.4), and again concentrated by centrifugation (2267 rpm, 20 min) under room temperature conditions. Finally, it was diluted with 10 mM HEPES buffer (pH 7.4) to a desired lipid concentration.
A solution of each lipid in chloroform (5 mM DOTAP 24.75 μL, 5 mM DOPE 33 μL, 5 mM Chol 24.75 μL) were mixed in a glass test tube at DOTAP:DOPE:Chol=3:4:3 to achieve 412.5 nmol total lipid. Ethanol was added to a total amount of 250 μL, and the mixture was dried under reduced pressure in a desiccator. The solvent was evaporated to give a lipid thin film. To the lipid thin film was added 250 μL of the gene electrostatic complex (in 10 mM HEPES; pH 7.4) prepared in [Experimental Example 1] (1) to a total lipid concentration of 1.65 mM, and the mixture was stood at room temperature for 10 min to allow for hydration, and sonicated by a sonicator (AIWA MEDICAL […] CO., LTD.) for 1 min.
The particle size and the surface potential were measured by the dynamic light scattering method (Zetasizer Nano; Malve Rn). The particle size and the surface potential of the various MENDs prepared by the preparation method of [Experimental Example 1] are shown in Table 3. The charge of B-2 and DODAP at physiological pH was in a preferable mode of −10 to +10 mV, whereas that of B-2-1 was +12.3, which is not less than +10 mV.
(1) MEND having a composition of B-2-4 (Example 4):DOPE:Chol=3:3:4 or B-2-5 (Example 5):POPE:Chol=3:4:3 was prepared according to the method described in [Experimental Example 1] (1) and (2).
The particle size and the surface potential were measured by the dynamic light scattering method (Zetasizer Nano; Malvern). The particle size and the surface potential of the various MENDs prepared by the preparation method of [Experimental Example 1] are shown in Table 4.

[4] = tested on: HT1080 cells; experiment: Gene expression by MEND (luciferase assay, RLU/mg protein); assay type: cell-based; conditions: cationic lipid:SOPE:Chol=3:4:3, PEG2000DSG; pDNA 0.4 μg/well, 24 hr
Description: Using B-2 (Example 1), B-2-1 (Comparative Example 1), and DODAP (Comparative Example 2) as cationic lipids, MENDs having a composition of cationic lipid:SOPE:Chol=3:4:3 were prepared by the method described in [Experimental Example 1] (2). For the preparation, PEG2000DSG was used as PEG lipid, and MEND solutions corresponding to 0.55 mM of the lipid concentration were prepared. For cationic MEND, lipids having a composition of DOTAP:DOPE:Chol:=3:4:3 were used, and the cationic MEND was prepared according to the method described in [Experimental Example 1] (3).
HT1080 cells were plated on a 24-well plate at 4×10^4 cells/500 μL/well 24 hr before, various MENDs were diluted with DMEM (FBS 10%+) to a pDNA amount of 0.4 μg/500 μL/well and transfected. 24 hr later, the cells were washed with PBS(−) (500 μL), 1× Lysis buffer was added to each well by 75 μL, and the mixture was stood at −80° C. for 30 min or longer. The frozen 24-well plate was thawed on ice, the cells were detached with a cell scraper, and the total amount thereof was transferred into an Eppendorf tube and centrifuged under the conditions of 15000 rpm, 4° C., 5 min. The supernatant (50 μL) was recovered in a different Eppendorf tube, and used for luciferase assay and BCA assay.
20 μL thereof was mixed with a Luciferase assay substrate (50 μL), and the luciferase activity in a given time was measured by a luminometer. The obtained lysate was diluted 5-fold with DDW to achieve 25 μL total volume. Thereto was added BCA Protein Assay Reagent (200 μL), and the mixture was stood at 37° C. for 30 min. Thereafter, the absorbance at 562 nm was measured, and the protein amount of the sample was calculated from the absorbance of a BSA solution having a known concentration. The luciferase activity (RLU) was adjusted by dividing with protein amount (mg), and the luciferase activity per cell protein amount (RLU/mg protein) was calculated.
Using B-2 (Example 1), B-2-2 (Example 2), and B-2-3 (Example 3) as cationic lipids, MENDs having a composition of cationic lipid:SOPE:Chol=3:4:3 were prepared by the method described in [Experimental Example 1] (2). For the preparation, PEG2000DSG was used as PEG lipid, and MEND solutions corresponding to 0.55 mM of the lipid concentration were prepared. The gene expression was evaluated by the method described in [Example 4] (2).
Using compositions of B-2-4 (Example 4):DOPE:Chol=3:3:4, B-2-5 (Example 5):POPE:Chol=3:3:4, B-2 (Example 1):SOPE:Chol=5:3:2 as lipids, MENDs were prepared according to [Experimental Example 1](1) and (2). For the preparation, PEG2000-DMG was used as PEG lipid, and MEND solutions corresponding to 0.55 mM of the lipid concentration were prepared.
The gene expression activity was evaluated by the method described in [Experimental Example 4] (2).

| SMILES | PDI [1] | size (nm) [1] | zeta (mV) [1] | PDI [3] | size (nm) [3] | zeta (mV) [3] | charge at physiological pH [1] | FVII expression level (knockdown effect) [2] | gene expression activity (luciferase activity per cell protein) [4] |
| --- | --- | --- | --- | --- | --- | --- | --- | --- | --- |
| Cc1c(C)c2c(c(C)c1OC(=O)CCC(=O)OCCC1CCN(CCSSCCN3CCC(CCOC(=O)CCC(=O)Oc4c(C)c(C)c5c(c4C)CCC(C)(CCCC(C)CCCC(C)CCCC(C)C)O5)CC3)CC1)CCC(C)(CCCC(C)CCCC(C)CCCC(C)C)O2 (stereo not drawn) [TS-P4C2] | 0.07 | 125 nm | −8.5 mV |  |  |  |  | highest knockdown effect |  |
| CCCCC/C=C\C/C=C\CCCCCCCC(=O)OCCCN(C)CCSSCCN(C)CCCOC(=O)CCCCCCC/C=C\C/C=C\CCCCC [Example B-2-3] |  |  |  | 0.091 | 148.7 nm | −7.97 mV |  |  | inferior to that of B-2, but exceeds that of conventional pH-responsive lipid cationic lipid, DODAP |
| Cc1c(C)c2c(c(C)c1OC(=O)CCC(=O)OCCCC1CCN(CCSSCCN3CCC(CCCOC(=O)CCC(=O)Oc4c(C)c(C)c5c(c4C)CCC(C)(CCCC(C)CCCC(C)CCCC(C)C)O5)CC3)CC1)CCC(C)(CCCC(C)CCCC(C)CCCC(C)C)O2 (stereo not drawn) [TS-P4C3] | 0.09 | 123 nm | −6.6 mV |  |  |  |  | highest knockdown effect |  |
| CCN(CCCCOC(=O)CCC(=O)Oc1c(C)c(C)c2c(c1C)CCC(C)(CCCC(C)CCCC(C)CCCC(C)C)O2)CCSSCCN(CC)CCCCOC(=O)CCC(=O)Oc1c(C)c(C)c2c(c1C)CCC(C)(CCCC(C)CCCC(C)CCCC(C)C)O2 (stereo not drawn) [TS-C4E] | 0.07 | 118 nm | −9.8 mV |  |  |  |  |  |  |
| Cc1c(C)c2c(c(C)c1OC(=O)CCCC(=O)OCCCN(C)CCSSCCN(C)CCCOC(=O)CCCC(=O)Oc1c(C)c(C)c3c(c1C)CCC(C)(CCCC(C)CCCC(C)CCCC(C)C)O3)CCC(C)(CCCC(C)CCCC(C)CCCC(C)C)O2 (stereo not drawn) [TG-C3M] | 0.13 | 120 nm | −13.0 mV |  |  |  |  |  |  |

More lines, main results first:

| PDI [1] | size (nm) [1] | zeta (mV) [1] | PDI [3] | size (nm) [3] | zeta (mV) [3] | charge at physiological pH [1] | SMILES | FVII expression level (knockdown effect) [2] | gene expression activity (luciferase activity per cell protein) [4] |
| --- | --- | --- | --- | --- | --- | --- | --- | --- | --- |
| 0.13 | 113 nm | −11.9 mV |  |  |  |  | Cc1c(C)c2c(c(C)c1OC(=O)CCC(=O)OCC1CCN(CCSSCCN3CCC(COC(=O)CCC(=O)Oc4c(C)c(C)c5c(c4C)CCC(C)(CCCC(C)CCCC(C)CCCC(C)C)O5)CC3)CC1)CCC(C)(CCCC(C)CCCC(C)CCCC(C)C)O2 (stereo not drawn) [TS-P4C1] | highest knockdown effect |  |
| 0.13 | 118 nm | −9.8 mV |  |  |  |  | Cc1c(C)c2c(c(C)c1OC(=O)CCC(=O)OCC1CCCN(CCSSCCN3CCCC(COC(=O)CCC(=O)Oc4c(C)c(C)c5c(c4C)CCC(C)(CCCC(C)CCCC(C)CCCC(C)C)O5)C3)C1)CCC(C)(CCCC(C)CCCC(C)CCCC(C)C)O2 (stereo not drawn) [TS-P3C1] |  |  |
|  |  |  | 0.132 | 134.6 nm | −5.77 mV |  | CCCCCCCCCCCCCCCCCC(=O)OCCCN(C)CCSSCCN(C)CCCOC(=O)CCCCCCCCCCCCCCCCC [Example B-2-2] |  | inferior to that of B-2, but exceeds that of conventional pH-responsive lipid cationic lipid, DODAP |
| 0.13 | 125 nm | −6.4 mV |  |  |  |  | Cc1c(C)c2c(c(C)c1OC(=O)CCC(=O)OCCCCCN(CCSSCCN(CCCCCOC(=O)CCC(=O)Oc1c(C)c(C)c3c(c1C)CCC(C)(CCCC(C)CCCC(C)CCCC(C)C)O3)C(C)C)C(C)C)CCC(C)(CCCC(C)CCCC(C)CCCC(C)C)O2 (stereo not drawn) [TS-C5P] |  |  |
| 0.12 | 114 nm | −12.2 mV |  |  |  |  | Cc1c(C)c2c(c(C)c1OC(=O)CCC(=O)OCC1CCCCN1CCSSCCN1CCCCC1COC(=O)CCC(=O)Oc1c(C)c(C)c3c(c1C)CCC(C)(CCCC(C)CCCC(C)CCCC(C)C)O3)CCC(C)(CCCC(C)CCCC(C)CCCC(C)C)O2 (stereo not drawn) [TS-P2C1] |  |  |
| 0.21 | 93 nm | 7.0 mV |  |  |  | weak positive charge | Cc1c(C)c2c(c(C)c1OC(=O)CCC(=O)NCCCN(C)CCSSCCN(C)CCCNC(=O)CCC(=O)Oc1c(C)c(C)c3c(c1C)CCC(C)(CCCC(C)CCCC(C)CCCC(C)C)O3)CCC(C)(CCCC(C)CCCC(C)CCCC(C)C)O2 (stereo not drawn) [TSamide-C3M] |  |  |
